Like-named read-outs stand apart in the source and are kept apart here.
Assays:
CYP2B6 = test: CLZD_CYP2B6: Change in expression of CYP2B6 (primary human hepatocytes); type: cell-based; settings: 24 hr
In short: (§1)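 Cultured primary human hepatocytes treated with chemicals for 6, 24 or 48 hr across five concentrations spanning 0.004-40 µM, then transcript level measured by quantitative nuclease protection in a multiplexed format.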

CYP3A4 = test: CLZD_CYP3A4: Change in expression of CYP3A4 (primary human hepatocytes); type: cell-based; settings: 24 hr
In short: as §1

Rat Liver [1] = settings: ref ToxRefDB, cited from earlier work
Rat Liver [2] = settings: ref ToxRefDB, cited from earlier work; remark: listed apart in the source
Rat Liver [3] = settings: ref ToxRefDB, cited from earlier work; remark: listed apart in the source
[4] = molecular target: T1, ESR1 (estrogen receptor 1) (Homo sapiens, UniProt P03372); test: ATG_ERa_TRANS: Factorial reporter gene assay (HepG2); type: cell-based
T1 construct: expressed in transfected cells; host or cells: HepG2
In short: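 Seven concentrations per chemical, three-fold dilutions down from the MTC, were tested in HepG2 hepatoma cells. Those cells carried a multiple reporter transcription unit library, read either as cis transcription-factor-site reporters or as a trans mammalian one-hybrid panel for nuclear receptors.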

CYP1A2 = test: CLZD_CYP1A2: Change in expression of CYP1A2 (primary human hepatocytes); type: cell-based; settings: 24 hr
In short: as §1

HMGCS2 = test: CLZD_HMGCS2: Change in expression of HMGCS2 (primary human hepatocytes); type: cell-based; settings: 24 hr, scale not given, looks like -log10 of molar active concentration, 0 = no activity
Description: This is a collection of multiplexed gene expression assays focused on Phase I and II xenobiotic metabolizing enzymes and transporters. Human primary cell cultures were treated with chemicals at 5 concentrations (0.004-40 [drawing 42] M) for 6, 24 and 48 hr. Concentration- and time-response profiles of chemicals were measured by the expression of key nuclear receptor target genes, activities of CYP1A enzymes (EROD), and cell morphology. Fourteen gene targets were monitored by quantitative nuclease protection assay including: six representative cytochrome P-450 genes, four hepatic transporters, three Phase II conjugating enzymes, and one endogenous metabolism gene involved in cholesterol synthesis. The target genes associated with nuclear receptor pathways are as follows: [drawing 43] and [drawing 44] with [drawing 45]; [drawing 46] , [drawing 47] , [drawing 48] , [drawing 49] , [drawing 50] and [drawing 51] with [drawing 52]; [drawing 53] , [drawing 54] , [drawing 55] and [drawing 56] with [drawing 57]; [drawing 58] with [drawing 59]; and [drawing 60] with [drawing 61] . Assays were run in primary human hepatocyte cultures by CellzDirect Invitrogen Inc. (Durham, NC), in collaboration with EPA.
Multiplexed Gene Expression in Human Primary Hepatocytes: This is a collection of multiplexed gene expression assays focused on Phase I and II metabolic enzymes and transporters. […] Fourteen gene targets were monitored by quantitative nuclease protection assay: six representative cytochrome P450 genes, four hepatic transporters, three Phase II conjugating enzymes, and one endogenous metabolism gene involved in cholesterol synthesis. Cells were exposed at 5 concentrations (0.004-40 µM) for 6, 24 or 48 hr. Gene targets are sentinels for five nuclear receptor signaling pathways: AhR, CAR, PXR, FXR, and PPARα. All gene are associated with nuclear receptor pathways: CYP1A1 and CYP1A2 with AHR; ABCB1, ABCG2, CYP2B6, CYP2C9, CYP2C19 and UGT1A1 with CAR; CYP3A4, GSTA2, SLCO1B1 and SULT2A1 with PXR; HMGCS2 with PPARA; and ABCB11 with FXR. […] Detailed description of the methods, data and analysis methods for this dataset will be presented in a separate publication.

ERa (ESR1) = molecular target: T2, ERa (ESR1) (Homo sapiens, UniProt P03372); test: NCGC_ERalpha_Agonist: GAL4 BLAM Reporter gene assay: ERa; type: cell-based; settings: agonist mode; scale not given, looks like -log10 of molar active concentration; 0 = no activity
T2 construct: expressed in transfected cells; host or cells: HEK293
Description: (§2) These assays measure binding constants and enzyme inhibition values for nuclear receptors. The targets include [drawing 67] , [drawing 68] , [drawing 69] , [drawing 70] , [drawing 71] , [drawing 72] , [drawing 73] , [drawing 74] , [drawing 75] and [drawing 76] . Each of the nuclear receptor targets was measured in agonist mode. Assays were run at the NIH Chemical Genomics Center (Rockville, MD).
(§3) Cell-based HTS Assays: These assays measuring binding constants and enzyme inhibition values for nuclear receptors. The targets include AR, ER, FXR, LXR, PPARα, PPARδ, PPARγ, RXRα, RXRβ and PXR. Each of the nuclear receptor targets was measured in both agonist and antagonist mode, but the antagonist data is still undergoing analysis due to possible interference between cytotoxicity and assay activity, so antagonist mode data were not used in the present analysis. Assays were run at the NIH Chemical Genomics Center (Rockville, MD) as part of the Tox21 collaboration. […] The R^2 was required to be ≥0.5. Values where only the highest concentration exceeded 50% activity were excluded to eliminate weak or false positives. Detailed description of the methods, data and analysis methods for this dataset will be presented in a separate publication.

LXRa (NR1H2) = test: NCGC_LXR_Agonist: GAL4 BLAM Reporter gene assay: LXRa; type: cell-based, human; settings: agonist mode; scale not given, looks like -log10 of molar active concentration; 0 = no activity
Description: as §2, §3

PXR Human (NR1I2) = molecular target: T3, PXR Human (NR1I2) (Homo sapiens, UniProt O75469); test: NCGC_PXR_Agonist_human: GAL4 BLAM Reporter gene assay: PXR Human; type: cell-based; settings: agonist mode
T3 sequence (O75469 146-434 limits assumed): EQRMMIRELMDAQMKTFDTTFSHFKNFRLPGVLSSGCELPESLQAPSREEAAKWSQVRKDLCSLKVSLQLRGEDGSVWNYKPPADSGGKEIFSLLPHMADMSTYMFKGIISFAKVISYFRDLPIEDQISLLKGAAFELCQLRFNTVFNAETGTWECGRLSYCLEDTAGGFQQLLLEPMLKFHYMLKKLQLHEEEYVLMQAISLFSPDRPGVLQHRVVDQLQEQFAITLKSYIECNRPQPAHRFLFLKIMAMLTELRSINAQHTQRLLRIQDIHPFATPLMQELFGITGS
In short: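 Tox21 cell-based screens at NCGC using GAL4-fused receptor beta-lactamase reporters. Responses active only at the top concentration (above 50%) were discarded, and fits needed R^2 of at least 0.5.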

[5] = HepG2, scale not given, looks like -log10 of molar active concentration, 0 = no activity
[6] = scale not given, looks like -log10 of molar active concentration, 0 = no activity

T1 sequence (P03372 whole entry): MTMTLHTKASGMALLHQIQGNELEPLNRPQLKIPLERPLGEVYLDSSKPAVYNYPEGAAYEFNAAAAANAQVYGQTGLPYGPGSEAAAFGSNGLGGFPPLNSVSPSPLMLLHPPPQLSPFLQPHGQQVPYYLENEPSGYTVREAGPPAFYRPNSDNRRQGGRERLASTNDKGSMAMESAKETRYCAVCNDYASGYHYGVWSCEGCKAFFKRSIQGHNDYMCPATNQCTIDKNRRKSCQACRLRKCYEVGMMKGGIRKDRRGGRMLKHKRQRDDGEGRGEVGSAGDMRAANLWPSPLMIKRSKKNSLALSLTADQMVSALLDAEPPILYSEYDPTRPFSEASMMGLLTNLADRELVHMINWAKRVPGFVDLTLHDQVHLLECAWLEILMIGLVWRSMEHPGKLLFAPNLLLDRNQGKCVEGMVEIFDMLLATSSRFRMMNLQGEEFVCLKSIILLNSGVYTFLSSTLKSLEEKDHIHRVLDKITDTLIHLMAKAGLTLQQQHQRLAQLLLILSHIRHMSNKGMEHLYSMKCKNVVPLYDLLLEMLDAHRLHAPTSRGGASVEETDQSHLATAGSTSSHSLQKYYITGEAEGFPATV
T2 sequence (P03372 whole entry, the tested form may be a part): as the sequence (P03372 whole entry) above

Row | SMILES | CLZD_CYP2B6_24 (CYP2B6) | CLZD_CYP3A4_24 (CYP3A4) | CHR_Rat_Liver_1_AnyLesion (Rat Liver [1]; chronic study, rat liver) | CHR_Rat_Liver_2_PreneoplasticLesion (Rat Liver [2]; chronic study, rat liver) | CHR_Rat_Liver_3_NeoplasticLesion (Rat Liver [3]; chronic study, rat liver) | ATG_ERa_TRANS [4, 5] | CLZD_HMGCS2_24 (HMGCS2) | NCGC_ERalpha_Agonist (ERa (ESR1)) | NCGC_LXR_Agonist (LXRa (NR1H2)) | NCGC_PXR_Agonist_human (PXR Human (NR1I2); [6]) | CLZD_CYP1A2_24 (CYP1A2) | NCGC_PXR_Agonist_human (PXR Human (NR1I2)) | also measured
1 | CCc1nn(C)c(C(=O)NCc2ccc(C(C)(C)C)cc2)c1Cl [r291] | 5.278 | 5.218 | 6 | 6 | 6 | – | – | – | – | – | – | – | –
2 | COC(=O)c1ccccc1CS(=O)(=O)NC(=O)Nc1nc(OC)cc(OC)n1 [r33] | – | – | – | – | – | 0 | 0 | 0 | 0 | 0 | – | – | CLZD_CYP1A2_24 (CYP1A2; [6]): 0; CLZD_CYP2B6_24 (CYP2B6; [6]): 0; CLZD_CYP3A4_24 (CYP3A4; [6]): 0
3 | CNC(=O)Oc1cccc2ccccc12 [r52] | – | – | – | – | – | 4.237 | 0 | 4.543 | 0 | 0 | – | – | CHR_Rat_Liver_1_AnyLesion (Rat Liver [1]; rat chronic study, liver, any lesion, coded 6 / 0, code not explained here): 6; CHR_Rat_Liver_2_PreneoplasticLesion (Rat Liver [2]; rat chronic study, liver, preneoplastic lesion, coded 6 / 0, code not explained here): 6; CHR_Rat_Liver_3_NeoplasticLesion (Rat Liver [3]; rat chronic study, liver, neoplastic lesion, coded 6 / 0, code not explained here): 6
4 | CC(C)=CC1C(C(=O)OCc2coc(Cc3ccccc3)c2)C1(C)C (centres unmarked) [r280] | 5.057 | – | 6 | 6 | 0 | – | – | – | – | – | – | – | ATG_ERa_TRANS ([4]; HepG2 reporter): 4.553
5 | CCc1ccc(C(=O)NN(C(=O)c2cc(C)cc(C)c2)C(C)(C)C)cc1 [r290] | 5.246 | 5.287 | 6 | 0 | 0 | – | – | – | – | – | 4.896 | 4.671 | –
6 | CCCC1COC(Cn2cncn2)(c2ccc(Cl)cc2Cl)O1 (centres unmarked) [r262] | 6.312 | 6.273 | – | – | – | – | – | – | – | – | 5.229 | 4.434 | CHR_Rat_Liver_1_AnyLesion (Rat Liver [1]; rat, chronic study): 6; CHR_Rat_Liver_2_PreneoplasticLesion (Rat Liver [2]; rat, chronic study): 0; CHR_Rat_Liver_3_NeoplasticLesion (Rat Liver [3]; rat, chronic study): 0
7 | CCCN(CCC)c1c([N+](=O)[O-])cc(C(F)(F)F)c(N)c1[N+](=O)[O-] [r252] | 5.057 | 5.248 | – | – | – | – | – | – | – | – | 5.166 | – | ATG_ERa_TRANS ([4]; HepG2): 4.824; CHR_Rat_Liver_1_AnyLesion (Rat Liver [1]; rat, chronic study): 6; CHR_Rat_Liver_2_PreneoplasticLesion (Rat Liver [2]; rat, chronic study): 0; CHR_Rat_Liver_3_NeoplasticLesion (Rat Liver [3]; rat, chronic study): 0
8 | COc1cc(Cl)c(OC)cc1Cl [r57] | – | – | – | – | – | 0 | 0 | 0 | 0 | 0 | – | – | CLZD_CYP1A2_24 (CYP1A2; [6]): 0; CLZD_CYP2B6_24 (CYP2B6; [6]): 5.434; CLZD_CYP3A4_24 (CYP3A4; [6]): 0
9 | COc1cccc(C(=O)NN(C(=O)c2cc(C)cc(C)c2)C(C)(C)C)c1C [row 202] | 5.305 | 5.142 | – | – | – | – | – | – | – | – | 4.924 | 5.223 | CHR_Rat_Liver_1_AnyLesion (Rat Liver [1]; chronic rat study, liver): 6; CHR_Rat_Liver_2_PreneoplasticLesion (Rat Liver [2]; chronic rat study, liver): 0; CHR_Rat_Liver_3_NeoplasticLesion (Rat Liver [3]; chronic rat study, liver): 0
